The values below come from patent US11149037B2, “Pyrazole MAGL inhibitors” (H. Lundbeck A/S, priority 2017, dated 2021).

In assay [1] the target is FAAH (Homo sapiens (Human), UniProt O00519). The assay is described as follows: In vitro competitive activity-based protein profiling, human proteomes (prefrontal cortex or PC3 cell membrane fractions). Type of assay: biochemical. As to conditions: human proteome; for inhibition at 1 µM: read-out: FAAH % inh. 1 μM (human). The essentials:
(§1)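 Activity of MAGL and FAAH was quantified from fluorescent gel band intensities. Beforehand, inhibitors at several concentrations competed against subsequent probe labelling (FP-Rh, JW912 or HT-01) in species-matched proteomes, each step 30 min at 37° C.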

Assay [2] addresses MAGL (Homo sapiens (Human), UniProt Q99685). The assay is described as above. Conditions: human proteome; for inhibition at 1 µM: read-out: MAGL % inh. 1 μM (human). In kind it is biochemical. The essentials: as §1
For assay [3], the target named is T1, FAAH (Mus musculus (Mouse), UniProt O08914). The assay is described as follows: In vitro competitive activity-based protein profiling, mouse proteomes (brain membrane fraction or cell lysates). In kind it is biochemical. As to conditions: mouse proteome, read-out: FAAH % inh. 1 μM (mouse). An outline of the steps: as §1
T1 sequence (O08914 whole entry): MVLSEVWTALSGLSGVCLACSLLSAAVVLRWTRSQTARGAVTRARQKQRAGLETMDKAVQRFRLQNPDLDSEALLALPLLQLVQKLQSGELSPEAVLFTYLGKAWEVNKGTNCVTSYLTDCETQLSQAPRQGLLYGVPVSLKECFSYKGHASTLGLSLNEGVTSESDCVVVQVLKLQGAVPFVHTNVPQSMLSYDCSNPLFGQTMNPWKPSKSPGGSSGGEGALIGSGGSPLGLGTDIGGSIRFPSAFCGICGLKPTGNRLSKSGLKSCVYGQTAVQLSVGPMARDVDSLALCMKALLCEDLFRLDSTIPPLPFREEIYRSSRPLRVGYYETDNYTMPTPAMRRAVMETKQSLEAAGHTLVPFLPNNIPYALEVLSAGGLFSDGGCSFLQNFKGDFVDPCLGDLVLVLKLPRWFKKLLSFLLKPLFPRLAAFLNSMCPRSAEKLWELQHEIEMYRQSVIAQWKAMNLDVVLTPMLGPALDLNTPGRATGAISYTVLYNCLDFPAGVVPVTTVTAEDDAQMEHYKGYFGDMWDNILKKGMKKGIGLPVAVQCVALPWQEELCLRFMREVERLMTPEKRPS
The target in assay [4] is T2, MAGL (Mus musculus (Mouse), UniProt O35678). Described as above. As to conditions: mouse proteome, read-out: MAGL % inh. 1 μM (mouse). Type of assay: biochemical. An outline of the steps:
as §1

For assay [5], the target named is T1, FAAH. Description: Mouse brain proteomes from inhibitor treated mice (oral gavage, sacrificed 4 h after administration). In kind it is in vivo. As to conditions: 5 mg/kg oral gavage. The method, then:
(§2) Preparation of Mouse Brain Proteomes from Inhibitor Treated Mice.
(§3) Inhibitors were administered to wild-type C57B1/6J by oral gavage in a vehicle of polyethylene glycol. Each animal was sacrificed 4 h following administration and brain proteomes were prepared and analyzed according to previously established methods (See Niphakis, M. J., et al. (2011) ACS Chem. Neurosci. and Long, J. Z., et al. Nat. Chem. Biol. 5:37-44).

Assay [6] addresses T2, MAGL. The assay is described as above. Type of assay: in vivo. Conditions: 5 mg/kg oral gavage. As to the method:
as §2, §3

T2 sequence (O35678 whole entry): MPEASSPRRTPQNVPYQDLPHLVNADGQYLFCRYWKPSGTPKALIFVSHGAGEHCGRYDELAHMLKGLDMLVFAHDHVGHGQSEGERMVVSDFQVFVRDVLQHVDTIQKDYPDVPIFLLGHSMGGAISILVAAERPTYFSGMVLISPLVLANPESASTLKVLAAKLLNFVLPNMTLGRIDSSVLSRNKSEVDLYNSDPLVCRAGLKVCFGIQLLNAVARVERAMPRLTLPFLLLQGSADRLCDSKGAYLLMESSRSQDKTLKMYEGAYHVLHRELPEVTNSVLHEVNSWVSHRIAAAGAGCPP
Chain of MAGL (Homo sapiens (Human), UniProt Q99685) (Q99685 whole entry): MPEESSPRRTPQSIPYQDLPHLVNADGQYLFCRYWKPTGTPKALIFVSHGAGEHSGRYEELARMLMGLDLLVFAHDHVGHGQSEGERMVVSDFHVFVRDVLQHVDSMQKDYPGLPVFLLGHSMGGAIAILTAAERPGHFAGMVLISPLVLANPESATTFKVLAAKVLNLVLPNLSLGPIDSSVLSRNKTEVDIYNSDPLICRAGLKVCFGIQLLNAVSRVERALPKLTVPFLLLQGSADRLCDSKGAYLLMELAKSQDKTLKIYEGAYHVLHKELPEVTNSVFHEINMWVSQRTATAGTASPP
Chain of FAAH (Homo sapiens (Human), UniProt O00519) (O00519 whole entry): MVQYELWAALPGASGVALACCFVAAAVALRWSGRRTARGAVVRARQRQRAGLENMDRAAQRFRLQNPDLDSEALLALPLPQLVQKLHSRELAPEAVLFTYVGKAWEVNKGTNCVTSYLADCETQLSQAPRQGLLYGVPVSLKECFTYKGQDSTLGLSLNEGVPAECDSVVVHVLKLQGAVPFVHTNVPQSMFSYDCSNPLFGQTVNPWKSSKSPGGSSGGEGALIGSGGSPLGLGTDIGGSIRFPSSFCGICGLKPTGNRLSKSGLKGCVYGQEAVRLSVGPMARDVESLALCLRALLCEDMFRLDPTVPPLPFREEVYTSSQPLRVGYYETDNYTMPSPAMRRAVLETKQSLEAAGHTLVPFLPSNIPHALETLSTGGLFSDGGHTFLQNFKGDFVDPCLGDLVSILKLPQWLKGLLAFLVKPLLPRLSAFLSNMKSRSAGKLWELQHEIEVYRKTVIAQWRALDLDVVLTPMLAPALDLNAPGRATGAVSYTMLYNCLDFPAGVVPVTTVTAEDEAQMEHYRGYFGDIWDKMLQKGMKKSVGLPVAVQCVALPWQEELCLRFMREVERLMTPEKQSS

For the compound `CC(=O)Nc1ccn(C(=O)N2CC3CN(Cc4ccc(Cl)c(C(C)(C)O)c4)CC3C2)n1` (stereo not shown) [Example 150, N-(1-(5-(4-Chloro-3-(2-hydroxypropan-2-yl)benzyl)octahydropyrrolo[3,4-c]pyrrole-2-carbonyl)-1H-pyrazol-3-yl)acetamide], the inhibition at 1 µM in assay [1] was 25 to 50%; in assay [2], > 75%; in assay [3], 0 to 25%; in assay [4] it was > 75%. For the same compound, the IC50 is 1 to 10 µM in assay [1] and < 0.1 µM in assay [2]. Besides, the “FAAH % inh. 5 mg/kg (mouse)” value in assay [5] was “D (% inhibition is greater than or equal to 0% and less than 25%)”. In assay [6], the “MAGL % inh. 5 mg/kg (mouse)” value is “D (% inhibition is greater than or equal to 0% and less than 25%)”.
For `CC(=O)Nc1ccn(C(=O)N2CCC3(CCN(C(=O)c4cc5ccc(C(F)(F)F)cc5s4)C3)CC2)n1` [Example 154, N-(1-(2-(6-(Trifluoromethyl)benzo[b]thiophene-2-carbonyl)-2,8-diazaspiro[4.5]decane-8-carbonyl)-1H-pyrazol-3-yl)acetamide], the inhibition at 1 µM in assay [1] was 25 to 50%; in assay [2], > 75%; in assay [3], > 75%; in assay [4], > 75%. For the same compound, the values for the IC50 in assay [1] and in assay [2] were 1 to 10 µM and < 0.1 µM, respectively. Also, the “FAAH % inh. 5 mg/kg (mouse)” value in assay [5] was “C (% inhibition is greater than or equal to 25% and less than 50%)”. For the same compound, the “MAGL % inh. 5 mg/kg (mouse)” value in assay [6] is “B (% inhibition is greater than or equal to 50% and less than 75%)”.
As to `C[C@@H]1CCCN1c1cc(CN2CCN(C(=O)n3ccc(NS(C)(=O)=O)n3)CC2)ccc1C(F)(F)F` [Example 156, (R)-N-(1-(4-(3-(2-Methylpyrrolidin-1-yl)-4-(trifluoromethyl)benzyl)piperazine-1-carbonyl)-1H-pyrazol-3-yl)methanesulfonamide], the inhibition at 1 µM in assay [1] was 0 to 25%; in assay [2], > 75%; in assay [3] it was 0 to 25%; in assay [4] it was > 75%. For the same compound, the “FAAH % inh. 5 mg/kg (mouse)” value in assay [5] is “D (% inhibition is greater than or equal to 0% and less than 25%)”. Further, the “MAGL % inh. 5 mg/kg (mouse)” value in assay [6] is on record as “A (% inhibition is greater than or equal to 75%)”.
In the case of `CS(=O)(=O)Nc1ccn(C(=O)N2CCN(Cc3ccc(Cl)c(N4C[C@H]5C[C@@H]4CO5)c3)CC2)n1` [Example 157, N-(1-(4-(3-((1R,4R)-2-Oxa-5-azabicyclo[2.2.1]heptan-5-yl)-4-chlorobenzyl)piperazine-1-carbonyl)-1H-pyrazol-3-yl)methanesulfonamide], the inhibition at 1 µM was 0 to 25% in assay [1], > 75% in assay [2], 0 to 25% in assay [3] and > 75% in assay [4]. Besides, the “FAAH % inh. 5 mg/kg (mouse)” value in assay [5] was “D (% inhibition is greater than or equal to 0% and less than 25%)”. Also, the “MAGL % inh. 5 mg/kg (mouse)” value in assay [6] is “D (% inhibition is greater than or equal to 0% and less than 25%)”.
Regarding `CS(=O)(=O)Nc1ccn(C(=O)N2CCN(Cc3ccc(Cl)c(N4CCO[C@@H]5CCC[C@@H]54)c3)CC2)n1` [Example 158, N-(1-(4-(4-Chloro-3-((4aS,7aR)-hexahydrocyclopenta[b][1,4]oxazin-4(4aH)-yl)benzyl)piperazine-1-carbonyl)-1H-pyrazol-3-yl)methanesulfonamide], the inhibition at 1 µM in assay [1] is 0 to 25%; in assay [2], > 75%; in assay [3], 0 to 25%; in assay [4], > 75%. The “FAAH % inh. 5 mg/kg (mouse)” value in assay [5] is “D (% inhibition is greater than or equal to 0% and less than 25%)”. For the same compound, in assay [6], the “MAGL % inh. 5 mg/kg (mouse)” value is “D (% inhibition is greater than or equal to 0% and less than 25%)”.
Turning to `CS(=O)(=O)Nc1ccn(C(=O)N2CCN(Cc3ccc(Cl)c(N4CCC5(CCOCC5)C4)c3)CC2)n1` [Example 159, N-(1-(4-(4-Chloro-3-(8-oxa-2-azaspiro[4.5]decan-2-yl)benzyl)piperazine-1-carbonyl)-1H-pyrazol-3-yl)methanesulfonamide], the inhibition at 1 µM in assay [1] is 0 to 25%; in assay [2], > 75%; in assay [3], 0 to 25%; in assay [4], > 75%. Also, the “FAAH % inh. 5 mg/kg (mouse)” value in assay [5] is “D (% inhibition is greater than or equal to 0% and less than 25%)”. For the same compound, in assay [6], the “MAGL % inh. 5 mg/kg (mouse)” value is “D (% inhibition is greater than or equal to 0% and less than 25%)”.
`CC(=O)Nc1ccn(C(=O)N2CC3CN(Cc4cc(N5CCCC5)cc(C(F)(F)F)c4)CC3C2)n1` (stereo not shown) [Example 168, N-(1-(5-(3-(Pyrrolidin-1-yl)-5-(trifluoromethyl)benzyl)octahydropyrrolo[3,4-c]pyrrole-2-carbonyl)-1H-pyrazol-3-yl)acetamide]: the inhibition at 1 µM in assay [1] was 50 to 75%; in assay [2], > 75%; in assay [3], > 75%; in assay [4], > 75%. In addition, in assay [5], the “FAAH % inh. 5 mg/kg (mouse)” value is “A (% inhibition is greater than or equal to 75%)”. Moreover, the “MAGL % inh. 5 mg/kg (mouse)” value in assay [6] is listed as “A (% inhibition is greater than or equal to 75%)”.
Regarding `CC(=O)Nc1ccn(C(=O)N2CC3CN(Cc4ccc(N5CCCC5)cc4Cl)CC3C2)n1` (stereo not shown) [Example 169, N-(1-(5-(2-Chloro-4-(pyrrolidin-1-yl)benzyl)octahydropyrrolo[3,4-c]pyrrole-2-carbonyl)-1H-pyrazol-3-yl)acetamide], the inhibition at 1 µM is 50 to 75% in assay [1], > 75% in assay [2], > 75% in assay [3] and > 75% in assay [4]. Further, in assay [5], the “FAAH % inh. 5 mg/kg (mouse)” value was “B (% inhibition is greater than or equal to 50% and less than 75%)”. Further, the “MAGL % inh. 5 mg/kg (mouse)” value in assay [6] was “B (% inhibition is greater than or equal to 50% and less than 75%)”.

As usually defined, the IC50 is the midpoint of a concentration-inhibition curve. Read a high IC50 as a need for much substance.
